According to patent US12252524B2, “GIP/GLP1 co-agonist compounds” (Eli Lilly and Company, priority 2018, dated 2025):
Numbered stars: 1 amine (or outer) side, 2 acyl side, 3 side chain; on linkers, the order of the positions; unused ones are H or OH. Square brackets hold non-standard residues; d marks the D form. Side chains are listed from the residue outwards. Peptide text beside a SMILES is read from it. * marks the point of attachment. C20 diacid = O=C(O)CCCCCCCCCCCCCCCCCCC(=O)*; γGlu = O=C(O)[C@H](CCC(=O)[*:2])N[*:1]; αMeL = CC(C)C[C@](C)(N)C(=O)O; AEEA = NCCOCCOCC(=O)O; Aib = CC(C)(N)C(=O)O

Key:
human Gcg receptor = biological target: T1, human Gcg receptor (Homo sapiens, UniProt P47871); experiment: [125I]-Glucagon binding (SPA), human Gcg receptor; settings: read-out: hGLcgR Ki, nM (SEM, n)
T1 construct: expressed in transfected cells; crude membranes
In short: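 Scintillation counts are taken after membranes and WGA beads incubate and settle for 12 hours at room temperature. Buffer is 25 mM HEPES, pH 7.4, with CaCl2, MgCl2, bacitracin and Tween-20. Ki values, from four-parameter IC50 fits, are geometric means over independent days.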

human GIP receptor = biological target: T2, human GIP receptor (Homo sapiens, UniProt P48546); experiment: [125I]-GIP binding (SPA), human GIP receptor; settings: read-out: hGIPR Ki, nM (SEM, n)
T2 construct: expressed in transfected cells; crude membranes
T2 sequence (P48546 22-466): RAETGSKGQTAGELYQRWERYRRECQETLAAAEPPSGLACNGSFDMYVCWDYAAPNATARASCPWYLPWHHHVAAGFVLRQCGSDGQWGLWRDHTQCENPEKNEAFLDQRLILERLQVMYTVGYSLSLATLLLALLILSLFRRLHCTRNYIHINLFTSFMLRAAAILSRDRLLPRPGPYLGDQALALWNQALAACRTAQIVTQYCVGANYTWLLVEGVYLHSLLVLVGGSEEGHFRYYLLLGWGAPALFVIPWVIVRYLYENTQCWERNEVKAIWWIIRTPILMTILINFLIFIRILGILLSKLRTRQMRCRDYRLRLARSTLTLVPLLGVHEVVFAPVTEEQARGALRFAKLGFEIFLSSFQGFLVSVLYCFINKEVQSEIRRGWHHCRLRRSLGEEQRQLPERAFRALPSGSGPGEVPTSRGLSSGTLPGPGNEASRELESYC

[1] = biological target: human GLP-1 receptor (GLP-1R) (Homo sapiens, UniProt P43220); experiment: cAMP pharmacological functional assay in presence of casein, hGLP-1R; type: cell-based; settings: HEK293 cells expressing hGLP-1R, 0.1% Casein, geometric mean; read-out: hGLP1R cAMP Rel EC50 nM (SEM, n)
[2] = biological target: T3, gastric inhibitory peptide receptor (GIPR) (Homo sapiens, UniProt P48546); experiment: cAMP pharmacological functional assay in presence of casein, hGIPR; type: cell-based; settings: HEK293 cells expressing hGIPR, 0.1% Casein, geometric mean; read-out: hGIPR cAMP Rel EC50 nM (SEM, n)
T3 sequence (P48546 22-466): T2 sequence (P48546 22-466)

human GLP-1R = human GLP-1R (Homo sapiens, UniProt P43220); experiment: [125I]-GLP-1 binding (SPA), human GLP-1 receptor; set-up: expressed in transfected cells; crude membranes; settings: read-out: hGLP1R Ki, (nM) (SEM, n)
In short: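 Crude-membrane binding assay; one membrane prep included 1 mM MgCl2 and 25 units/ml DNAse I during lysis. Assay buffer at pH 7.4 contains 0.1% (w/v) bacitracin and 0.003% (w/v) TWEEN-20. Ki is reported as geometric mean.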

T1 sequence (P47871 26-477): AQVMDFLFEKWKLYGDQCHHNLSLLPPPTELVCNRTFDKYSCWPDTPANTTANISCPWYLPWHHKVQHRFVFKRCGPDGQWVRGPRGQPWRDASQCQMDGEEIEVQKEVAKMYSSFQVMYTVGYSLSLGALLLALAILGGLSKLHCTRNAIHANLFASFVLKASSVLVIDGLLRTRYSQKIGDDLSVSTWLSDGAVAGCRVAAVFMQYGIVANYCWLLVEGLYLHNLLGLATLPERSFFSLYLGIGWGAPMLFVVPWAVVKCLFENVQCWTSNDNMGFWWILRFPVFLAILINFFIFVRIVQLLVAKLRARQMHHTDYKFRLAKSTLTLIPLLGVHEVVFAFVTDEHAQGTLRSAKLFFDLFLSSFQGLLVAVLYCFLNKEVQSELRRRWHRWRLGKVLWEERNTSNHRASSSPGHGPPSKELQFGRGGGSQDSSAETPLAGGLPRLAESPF
Sequence of human GLP-1 receptor (GLP-1R) (P43220 24-463): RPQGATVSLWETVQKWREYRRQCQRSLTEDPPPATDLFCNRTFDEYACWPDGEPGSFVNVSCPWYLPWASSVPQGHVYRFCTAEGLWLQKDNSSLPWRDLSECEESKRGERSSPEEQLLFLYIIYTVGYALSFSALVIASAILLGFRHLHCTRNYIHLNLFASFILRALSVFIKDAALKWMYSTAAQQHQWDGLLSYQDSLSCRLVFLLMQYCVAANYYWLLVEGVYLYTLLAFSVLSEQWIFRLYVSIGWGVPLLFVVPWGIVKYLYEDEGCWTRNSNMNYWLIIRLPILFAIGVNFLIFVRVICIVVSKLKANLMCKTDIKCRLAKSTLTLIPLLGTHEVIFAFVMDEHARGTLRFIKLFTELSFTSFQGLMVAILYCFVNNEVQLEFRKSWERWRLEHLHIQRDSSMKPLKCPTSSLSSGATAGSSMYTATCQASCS
Sequence of human GLP-1R (P43220 24-463): as above

| SMILES | Ki (human Gcg receptor) [nM] | Ki (human GIP receptor) [nM] | EC50 [1] [nM] | EC50 [2] [nM] | Ki (human GLP-1R) [nM] |
| --- | --- | --- | --- | --- | --- |
| CC[C@H](C)[C@H](NC(=O)[C@H](CC(C)C)NC(=O)[C@H](Cc1ccc(O)cc1)NC(=O)[C@H](CCC(=O)O)NC(=O)[C@@H](NC(=O)[C@H](Cc1ccccc1)NC(=O)[C@H](C)NC(=O)[C@H](Cc1c[nH]cn1)NC(=O)[C@H](CCC(N)=O)NC(=O)[C@H](C)NC(=O)[C@H](CCCCNC(=O)COCCOCCNC(=O)COCCOCCNC(=O)CC[C@H](NC(=O)CCCCCCCCCCCCCCCCCCC(=O)O)C(=O)O)NC(=O)[C@H](CCC(=O)O)NC(=O)[C@H](CC(=O)O)NC(=O)[C@H](CC(C)C)NC(=O)[C@](C)(CC(C)C)NC(=O)[C@@H](NC(=O)[C@H](CO)NC(=O)[C@H](Cc1ccc(O)cc1)NC(=O)[C@H](CC(=O)O)NC(=O)[C@H](CO)NC(=O)[C@@H](NC(=O)[C@H](Cc1ccccc1)NC(=O)[C@@H](NC(=O)CNC(=O)[C@H](CCC(=O)O)NC(=O)C(C)(C)NC(=O)[C@@H](N)Cc1ccc(O)cc1)[C@@H](C)O)[C@@H](C)O)[C@@H](C)CC)[C@@H](C)CC)C(=O)N[C@@H](CCC(=O)O)C(=O)NCC(=O)NCC(=O)N1CCC[C@H]1C(=O)N[C@@H](CO)C(=O)N[C@@H](CO)C(=O)NCC(=O)N[C@@H](C)C(=O)N1CCC[C@H]1C(=O)N1CCC[C@H]1C(=O)N1CCC[C@H]1C(=O)N[C@@H](CO)C(N)=O [Example 56] (H-Y[Aib]EGTFTSDYSI[αMeL]LDEK([AEEA-AEEA-γGlu-C20 diacid])AQHAFIEYLIEGGPSSGAPPPS-NH2) | > 1060 | 0.148 | 0.136 | 0.167 | 10.3 |
| CC[C@H](C)[C@H](NC(=O)[C@H](CC(C)C)NC(=O)[C@H](Cc1ccc(O)cc1)NC(=O)[C@H](CCC(=O)O)NC(=O)[C@@H](NC(=O)[C@H](Cc1ccccc1)NC(=O)[C@H](C)NC(=O)C(C)(C)NC(=O)[C@H](CCC(N)=O)NC(=O)[C@H](C)NC(=O)[C@H](CCCCNC(=O)COCCOCCNC(=O)COCCOCCNC(=O)CC[C@H](NC(=O)CCCCCCCCCCCCCCCCCCC(=O)O)C(=O)O)NC(=O)[C@H](CCCCN)NC(=O)[C@H](CC(=O)O)NC(=O)[C@H](CC(C)C)NC(=O)[C@H](CC(C)C)NC(=O)[C@@H](NC(=O)[C@H](CO)NC(=O)[C@H](Cc1ccc(O)cc1)NC(=O)[C@H](CC(=O)O)NC(=O)[C@H](CO)NC(=O)[C@@H](NC(=O)[C@](C)(Cc1ccccc1)NC(=O)[C@@H](NC(=O)CNC(=O)[C@H](CCC(=O)O)NC(=O)C(C)(C)NC(=O)[C@@H](N)Cc1ccc(O)cc1)[C@@H](C)O)[C@@H](C)O)[C@@H](C)CC)[C@@H](C)CC)C(=O)N[C@@H](CCC(=O)O)C(=O)NCC(=O)NCC(=O)N1CCC[C@H]1C(=O)N[C@@H](CO)C(=O)N[C@@H](CO)C(=O)NCC(=O)N[C@@H](C)C(=O)N1CCC[C@H]1C(=O)N1CCC[C@H]1C(=O)N1CCC[C@H]1C(=O)N[C@@H](CO)C(N)=O [Example 57] | 26.1 | 0.0583 | 0.0668 | 0.0849 | 3 |
| CC[C@H](C)[C@H](NC(=O)[C@H](CC(C)C)NC(=O)[C@H](Cc1ccc(O)cc1)NC(=O)[C@H](CCC(=O)O)NC(=O)[C@@H](NC(=O)[C@H](Cc1ccccc1)NC(=O)[C@H](C)NC(=O)C(C)(C)NC(=O)[C@H](CCC(N)=O)NC(=O)[C@H](C)NC(=O)[C@H](CCCCNC(=O)COCCOCCNC(=O)COCCOCCNC(=O)CC[C@H](NC(=O)CCCCCCCCCCCCCCCCCCC(=O)O)C(=O)O)NC(=O)[C@H](CCCCN)NC(=O)[C@H](CC(=O)O)NC(=O)[C@H](CC(C)C)NC(=O)[C@H](CC(C)C)NC(=O)[C@H](CO)NC(=O)[C@H](CO)NC(=O)[C@H](Cc1ccc(O)cc1)NC(=O)[C@H](CC(=O)O)NC(=O)[C@H](CO)NC(=O)[C@@H](NC(=O)[C@H](Cc1ccccc1)NC(=O)[C@@H](NC(=O)CNC(=O)[C@H](CCC(=O)O)NC(=O)C(C)(C)NC(=O)[C@@H](N)Cc1ccc(O)cc1)[C@@H](C)O)[C@@H](C)O)[C@@H](C)CC)C(=O)N[C@@H](CCC(=O)O)C(=O)NCC(=O)NCC(=O)N1CCC[C@H]1C(=O)N[C@@H](CO)C(=O)N[C@@H](CO)C(=O)NCC(=O)N[C@@H](C)C(=O)N1CCC[C@H]1C(=O)N1CCC[C@H]1C(=O)N1CCC[C@H]1C(=O)N[C@@H](CO)C(N)=O [Example 58] (H-Y[Aib]EGTFTSDYSSLLDKK([AEEA-AEEA-γGlu-C20 diacid])AQ[Aib]AFIEYLIEGGPSSGAPPPS-NH2; N-terminus assumed) | 339 | 0.105 | 0.18 | 0.266 | 2.77 |
| CC[C@H](C)[C@H](NC(=O)[C@H](CC(C)C)NC(=O)[C@H](Cc1ccc(O)cc1)NC(=O)[C@H](CCC(=O)O)NC(=O)[C@@H](NC(=O)[C@H](Cc1ccccc1)NC(=O)[C@H](C)NC(=O)C(C)(C)NC(=O)[C@H](CCC(N)=O)NC(=O)[C@H](C)NC(=O)[C@H](CCCCNC(=O)COCCOCCNC(=O)COCCOCCNC(=O)CC[C@H](NC(=O)CCCCCCCCCCCCCCCCCCC(=O)O)C(=O)O)NC(=O)[C@H](CCC(=O)O)NC(=O)[C@H](CC(=O)O)NC(=O)[C@H](CC(C)C)NC(=O)[C@](C)(CC(C)C)NC(=O)[C@@H](NC(=O)[C@H](CO)NC(=O)[C@H](Cc1ccc(O)cc1)NC(=O)[C@H](CC(=O)O)NC(=O)[C@H](CO)NC(=O)[C@@H](NC(=O)[C@H](Cc1ccccc1)NC(=O)[C@@H](NC(=O)CNC(=O)[C@H](CCC(=O)O)NC(=O)C(C)(C)NC(=O)[C@@H](N)Cc1ccc(O)cc1)[C@@H](C)O)[C@@H](C)O)[C@@H](C)CC)[C@@H](C)CC)C(=O)N[C@@H](CCC(=O)O)C(=O)NCC(=O)NCC(=O)N1CCC[C@H]1C(=O)N[C@@H](CO)C(=O)N[C@@H](CO)C(=O)NCC(=O)N[C@@H](C)C(=O)N1CCC[C@H]1C(=O)N1CCC[C@H]1C(=O)N1CCC[C@H]1C(=O)N[C@@H](CO)C(N)=O [Example 59] (H-Y[Aib]EGTFTSDYSI[αMeL]LDEK([AEEA-AEEA-γGlu-C20 diacid])AQ[Aib]AFIEYLIEGGPSSGAPPPS-NH2) | 292 | 0.136 | 0.084 | 0.0922 | 8.2 |
| CC[C@H](C)[C@H](NC(=O)[C@H](CC(C)C)NC(=O)[C@H](Cc1ccc(O)cc1)NC(=O)[C@H](CCC(=O)O)NC(=O)[C@@H](NC(=O)[C@H](Cc1ccccc1)NC(=O)[C@H](C)NC(=O)C(C)(C)NC(=O)[C@H](CCC(N)=O)NC(=O)[C@H](C)NC(=O)[C@H](CCCCNC(=O)COCCOCCNC(=O)COCCOCCNC(=O)CC[C@H](NC(=O)CCCCCCCCCCCCCCCCCCC(=O)O)C(=O)O)NC(=O)C(C)(C)NC(=O)[C@H](CC(=O)O)NC(=O)[C@H](CC(C)C)NC(=O)[C@](C)(CC(C)C)NC(=O)[C@@H](NC(=O)[C@H](CO)NC(=O)[C@H](Cc1ccc(O)cc1)NC(=O)[C@H](CC(=O)O)NC(=O)[C@H](CO)NC(=O)[C@@H](NC(=O)[C@H](Cc1ccccc1)NC(=O)[C@@H](NC(=O)CNC(=O)[C@H](CCC(=O)O)NC(=O)C(C)(C)NC(=O)[C@@H](N)Cc1ccc(O)cc1)[C@@H](C)O)[C@@H](C)O)[C@@H](C)CC)[C@@H](C)CC)C(=O)N[C@@H](CCC(=O)O)C(=O)NCC(=O)NCC(=O)N1CCC[C@H]1C(=O)N[C@@H](CO)C(=O)N[C@@H](CO)C(=O)NCC(=O)N[C@@H](C)C(=O)N1CCC[C@H]1C(=O)N1CCC[C@H]1C(=O)N1CCC[C@H]1C(=O)N[C@@H](CO)C(N)=O [Example 60] (H-Y[Aib]EGTFTSDYSI[αMeL]LD[Aib]K([AEEA-AEEA-γGlu-C20 diacid])AQ[Aib]AFIEYLIEGGPSSGAPPPS-NH2) | 237 | 0.0655 | 0.287 | 0.135 | 9.55 |
